*1 amine or outer side, *2 acyl side, *3 side chain or, on linkers, in order; H or OH if unused. Where a SMILES comes first, the peptide text is derived from it. Where no end group is shown, it is not given here. Side-chain parts run from the residue outwards. The star is where a group is joined. γGlu = O=C(O)[C@H](CCC(=O)[*:2])N[*:1]; Palmitoyl = CCCCCCCCCCCCCCCC(=O)*; Hexanoyl = CCCCCC(=O)*; Propionyl = CCC(=O)*
Experiments:
[1] = molecular target: T1, human VPAC2 (Homo sapiens, UniProt P41587); test: DiscoveRx cAMP in vitro potency, human VPAC2; format: cell-based
T1 construct: expressed in transfected cells
T1 sequence (P41587 24-438): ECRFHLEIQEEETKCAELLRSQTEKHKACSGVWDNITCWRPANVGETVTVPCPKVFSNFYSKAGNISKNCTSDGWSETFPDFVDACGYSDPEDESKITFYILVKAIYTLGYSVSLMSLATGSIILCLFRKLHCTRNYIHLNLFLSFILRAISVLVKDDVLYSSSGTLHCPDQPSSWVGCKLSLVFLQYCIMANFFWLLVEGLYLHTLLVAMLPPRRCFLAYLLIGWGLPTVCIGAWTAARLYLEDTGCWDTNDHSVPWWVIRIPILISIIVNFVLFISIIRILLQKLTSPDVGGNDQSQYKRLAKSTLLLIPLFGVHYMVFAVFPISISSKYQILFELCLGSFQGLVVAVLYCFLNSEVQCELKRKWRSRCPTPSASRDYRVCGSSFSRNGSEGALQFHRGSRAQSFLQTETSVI
Experimental: (§1) Also, the cells are washed twice. The cells are incubated in assay buffer plus IBMX for 15 minutes at room temperature. […] The stimuli are present for 30 minutes. Then, the assay buffer is gently removed. […] At day 3, the assay described above for the VPAC2 receptor cell line is performed.

[2] = molecular target: T1, human VPAC2; test: Alpha screen cAMP in vitro potency, human VPAC2; format: cell-based
Experimental: Alpha screen: Cells are washed in the culture flask once with PBS. Then, the cells are rinsed with enzyme free dissociation buffer. The dissociated cells are removed. The cells are then spun down and washed in stimulation buffer. For each data point, 50,000 cells suspended in stimulation buffer are used. To this buffer, Alpha screen acceptor beads are added along with the stimuli. This mixture is incubated for 60 minutes. Lysis buffer and Alpha screen donor beads are added and are incubated for 60 to 120 minutes. The Alpha screen signal (indicative of intracellular cAMP levels) is read in a suitable instrument (e.g. AlphaQuest from Perlin-Elmer). Steps including Alpha screen donor and acceptor beads are performed in reduced light.

[3] = molecular target: T1, human VPAC2; test: Filter binding assay, human VPAC2 membranes, 125I-labeled VIP tracer
Experimental: (§2) For this assay, the solutions and equipment include:
(§3) Presoak solution: 0.5% Polyethyleneamine in Aqua dest.
(§4) Buffer for flushing filter plates: 25 mM […] pH 7.4
(§5) Blocking buffer: 25 mM HEPES pH 7.4; 0.2% protease free BSA
(§6) Assay buffer: 25 mM HEPES pH 7.4; 0.5% protease free BSA
(§7) Dilution and assay plate: PS-Microplate, U form
(§8) Filtration Plate Multiscreen FB Opaque Plate; […] Type B Glasfiber filter
(§9) In order to prepare the filter plates, aspirate the presoak solution by vacuum filtration. Flush the plates twice with 200 μL flush buffer. Add 200 μL blocking buffer to the filter plate. The filter plate is then incubated […] for 1 hour at room temperature.
(§10) Fill the assay plate with 25 μL assay buffer, 25 μL membranes (2.5 μg) suspended in assay buffer, 25 μL compound (agonist) in assay buffer, and 25 μL tracer (about 40000 cpm) in assay buffer. Incubate the filled plate for 1 hour with shaking.
(§11) Conduct the transfer from assay plate to filter plate. Aspirate the blocking buffer by vacuum filtration and wash two times with flush buffer. Transfer 90 μL from the assay plate to the filter plate. Aspirate the 90 μL transferred from assay plate and wash three times with 200 μL flush buffer. Remove the plastic support. Dry for 1 hour at 60° C. Add 30 μL Microscint. Perform the count.

[4] = molecular target: T2, human VPAC1 (Homo sapiens, UniProt P32241); test: Filter binding assay, human VPAC1 membranes, 125I-labeled VIP tracer; design: expressed in transfected cells
T2 sequence (P32241 31-457): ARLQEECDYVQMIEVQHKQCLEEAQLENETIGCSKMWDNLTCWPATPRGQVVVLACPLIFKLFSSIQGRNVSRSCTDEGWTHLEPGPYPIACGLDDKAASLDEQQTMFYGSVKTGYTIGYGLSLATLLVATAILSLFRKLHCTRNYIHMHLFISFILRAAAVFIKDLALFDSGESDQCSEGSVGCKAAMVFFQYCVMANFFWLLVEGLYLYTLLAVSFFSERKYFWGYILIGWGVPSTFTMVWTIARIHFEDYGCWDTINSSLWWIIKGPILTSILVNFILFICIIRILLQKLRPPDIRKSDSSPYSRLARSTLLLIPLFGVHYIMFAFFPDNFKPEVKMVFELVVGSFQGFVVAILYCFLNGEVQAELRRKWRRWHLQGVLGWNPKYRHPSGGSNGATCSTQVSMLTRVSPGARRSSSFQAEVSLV
Experimental: as §2, §3, §4, §5, §6, §7, §8, §9, §10, §11

[5] = molecular target: T3, human PAC1 (Homo sapiens, UniProt P41586); test: cell-based
T3 sequence (P41586 21-468): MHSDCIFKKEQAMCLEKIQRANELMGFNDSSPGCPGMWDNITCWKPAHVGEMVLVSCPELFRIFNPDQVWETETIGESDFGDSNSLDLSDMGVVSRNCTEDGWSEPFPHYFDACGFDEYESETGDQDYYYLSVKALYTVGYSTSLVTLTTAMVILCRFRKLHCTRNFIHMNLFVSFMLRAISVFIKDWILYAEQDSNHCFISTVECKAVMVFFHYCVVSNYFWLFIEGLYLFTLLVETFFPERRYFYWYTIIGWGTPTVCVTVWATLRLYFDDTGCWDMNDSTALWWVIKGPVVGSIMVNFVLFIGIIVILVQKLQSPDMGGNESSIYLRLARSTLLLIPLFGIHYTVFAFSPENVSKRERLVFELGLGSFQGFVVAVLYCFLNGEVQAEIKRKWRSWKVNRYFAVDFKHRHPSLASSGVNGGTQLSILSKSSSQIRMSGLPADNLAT
Experimental: as §1

[6] = molecular target: T2, human VPAC1; test: DiscoveRx cAMP in vitro potency, human VPAC1; format: cell-based; design: expressed in transfected cells; host or cells: CHO-PO, transient transfection (Lipofectamine)
Experimental: as §1

[7] = molecular target: T3, human PAC1; test: biochemical
Experimental: as §2, §3, §4, §5, §6, §7, §8, §9, §10, §11

[8] = molecular target: T4, human VPAC2 receptor (human) (UniProt P41587)
T4 sequence: T1 sequence (P41587 24-438)

[9] = molecular target: T5, rat VPAC2 receptor (rat, UniProt P35000); test: cell-based or functional assay
T5 sequence: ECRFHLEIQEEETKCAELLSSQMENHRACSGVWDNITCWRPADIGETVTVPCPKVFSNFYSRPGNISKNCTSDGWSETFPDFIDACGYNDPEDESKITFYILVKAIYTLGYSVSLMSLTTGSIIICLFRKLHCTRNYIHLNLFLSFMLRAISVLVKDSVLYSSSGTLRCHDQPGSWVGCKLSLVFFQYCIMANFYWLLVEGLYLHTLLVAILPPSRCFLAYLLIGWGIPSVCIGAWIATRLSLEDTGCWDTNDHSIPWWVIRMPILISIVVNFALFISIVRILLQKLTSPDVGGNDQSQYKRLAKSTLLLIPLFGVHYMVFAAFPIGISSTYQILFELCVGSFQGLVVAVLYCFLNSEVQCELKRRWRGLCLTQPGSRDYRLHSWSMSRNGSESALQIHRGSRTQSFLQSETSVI

[10] = molecular target: T6, rat VPAC1 receptor (rat, UniProt P30083); test: cell-based or functional assay
T6 sequence: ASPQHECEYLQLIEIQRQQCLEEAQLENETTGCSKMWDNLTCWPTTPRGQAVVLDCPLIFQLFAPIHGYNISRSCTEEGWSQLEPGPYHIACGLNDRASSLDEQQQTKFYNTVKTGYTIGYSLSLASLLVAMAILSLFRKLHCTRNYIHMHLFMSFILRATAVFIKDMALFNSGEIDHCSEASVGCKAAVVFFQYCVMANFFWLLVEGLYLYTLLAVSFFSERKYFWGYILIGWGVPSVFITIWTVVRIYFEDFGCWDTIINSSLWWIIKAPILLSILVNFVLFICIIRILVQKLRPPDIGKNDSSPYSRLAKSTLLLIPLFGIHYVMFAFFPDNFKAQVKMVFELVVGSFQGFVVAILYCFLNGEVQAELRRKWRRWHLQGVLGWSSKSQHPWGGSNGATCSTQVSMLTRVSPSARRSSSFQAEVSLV

## CCCCCCCCCCCCCCCC(=O)N[C@@H](CCC(=O)NCCCC[C@H](NC(=O)[C@@H]1CCCN1C(=O)[C@@H]1CCCN1C(=O)[C@@H]1CCCN1C(=O)[C@H](CO)NC(=O)[C@@H](NC(=O)[C@H](CCCNC(=N)N)NC(=O)[C@H](CO)NC(=O)[C@H](CC(N)=O)NC(=O)[C@H](CCCCN)NC(=O)[C@@H](NC(=O)[C@H](CO)NC(=O)[C@H](CCC(N)=O)NC(=O)[C@H](CC(C)C)NC(=O)[C@H](Cc1ccc(O)cc1)NC(=O)[C@H](CCCCN)NC(=O)[C@H](CCCCN)NC(=O)[C@H](C)NC(=O)[C@H](C)NC(=O)[C@@H](NC(=O)[C@H](CCC(N)=O)NC(=O)[C@H](CCCCN)NC(=O)[C@H](CCCNC(=N)N)NC(=O)[C@H](CC(C)C)NC(=O)[C@H](CCCNC(=N)N)NC(=O)[C@@H](NC(=O)[C@H](Cc1ccc(O)cc1)NC(=O)[C@H](CC(N)=O)NC(=O)[C@H](CC(=O)O)NC(=O)[C@@H](NC(=O)[C@H](Cc1ccccc1)NC(=O)[C@@H](NC(=O)[C@H](C)NC(=O)[C@H](CC(=O)O)NC(=O)[C@H](CO)NC(=O)[C@H](Cc1c[nH]cn1)NC(=O)CC)C(C)C)[C@@H](C)O)[C@@H](C)O)C(C)C)[C@@H](C)CC)[C@@H](C)O)C(N)=O)C(=O)O [Agonist P95] (Propionyl-HSDAVFTDNYTRLRKQVAAKKYLQSIKNSRTSPPPK([γGlu-Palmitoyl])-NH2)
[1]
  EC50: 0.45 nM
[2]
  EC50: 0.24 nM
[3]
  IC50: 21.6 nM
[4]
  IC50: 203 nM

## Ac-HSDAVFTDNYTRLRKQVAAKKYLQSIKNSRTSPPP-NH2 [Agonist P32]
[1]
  EC50: 0.65 nM
[2]
  EC50: 0.32 nM
[5]
  EC50: 125 nM
[3]
  IC50: 0.89 nM
[4]
  IC50: 38.3 nM
[6]
  EC50: 8.24 nM

## HSDAVFTDNYTRLRKQVAAKKYLQSIKNSRTSPPP-NH2 [Agonist P5]
[1]
  EC50: 1.21 nM
[2]
  EC50: 1.5 nM
[5]
  EC50: 30 nM
[3]
  IC50: 0.67 nM
[7]
  IC50: 234 nM
[4]
  IC50: 56.7 nM
[6]
  EC50: 1.1 nM

B1: P309 (peptide)
peptide: HSDAVFTDNYTRLRXQVAAXKYLQSIKNSRTSPPP
modifications: N-terminal hexanoyl (C6); Aib (amino isobutyric acid) at positions 15 and 20; C-terminal amide (-NH2)
[8]
  EC50 (nM) for cAMP generation, Alpha Screen: 0.16 nM
[9]
  EC50 for cAMP generation, DiscoveRx: 0.05 nM

B2: P81 (peptide)
peptide: Hexanoyl-HSDAVFTDNYTRLRKQVAAKKYLQSIKNSRTSPPPK([γGlu-Palmitoyl])-NH2
SMILES: CCCCCCCCCCCCCCCC(=O)N[C@@H](CCC(=O)NCCCC[C@H](NC(=O)[C@@H]1CCCN1C(=O)[C@@H]1CCCN1C(=O)[C@@H]1CCCN1C(=O)[C@H](CO)NC(=O)[C@@H](NC(=O)[C@H](CCCNC(=N)N)NC(=O)[C@H](CO)NC(=O)[C@H](CC(N)=O)NC(=O)[C@H](CCCCN)NC(=O)[C@@H](NC(=O)[C@H](CO)NC(=O)[C@H](CCC(N)=O)NC(=O)[C@H](CC(C)C)NC(=O)[C@H](Cc1ccc(O)cc1)NC(=O)[C@H](CCCCN)NC(=O)[C@H](CCCCN)NC(=O)[C@H](C)NC(=O)[C@H](C)NC(=O)[C@@H](NC(=O)[C@H](CCC(N)=O)NC(=O)[C@H](CCCCN)NC(=O)[C@H](CCCNC(=N)N)NC(=O)[C@H](CC(C)C)NC(=O)[C@H](CCCNC(=N)N)NC(=O)[C@@H](NC(=O)[C@H](Cc1ccc(O)cc1)NC(=O)[C@H](CC(N)=O)NC(=O)[C@H](CC(=O)O)NC(=O)[C@@H](NC(=O)[C@H](Cc1ccccc1)NC(=O)[C@@H](NC(=O)[C@H](C)NC(=O)[C@H](CC(=O)O)NC(=O)[C@H](CO)NC(=O)[C@H](Cc1c[nH]cn1)NC(=O)CCCCC)C(C)C)[C@@H](C)O)[C@@H](C)O)C(C)C)[C@@H](C)CC)[C@@H](C)O)C(N)=O)C(=O)O
[8]
  EC50 (nM) for cAMP generation, Alpha Screen: 0.01 nM
  EC50 (nM) for cAMP generation, DiscoveRx: 0.18 nM
[9]
  EC50 for cAMP generation, DiscoveRx: 0.05 nM
[10]
  EC50 for cAMP generation, DiscoveRx: 0.8 nM

## HSDAVFTDNYTRLRKAAAAKKYLQSIKNSRTSPPP-NH2 [P97]
[8]
  EC50 (nM) for cAMP generation, Alpha Screen: 0.64 nM
[10]
  EC50 for cAMP generation, DiscoveRx: 0.3 nM

B3: P118 (peptide)
peptide: Hexanoyl-HSDAVFTDNYTRLRKQVAAKKYLQSIKNSRTSPPPK(Trp)-NH2
SMILES: CCCCCC(=O)N[C@@H](Cc1c[nH]cn1)C(=O)N[C@@H](CO)C(=O)N[C@@H](CC(=O)O)C(=O)N[C@@H](C)C(=O)N[C@H](C(=O)N[C@@H](Cc1ccccc1)C(=O)N[C@H](C(=O)N[C@@H](CC(=O)O)C(=O)N[C@@H](CC(N)=O)C(=O)N[C@@H](Cc1ccc(O)cc1)C(=O)N[C@H](C(=O)N[C@@H](CCCNC(=N)N)C(=O)N[C@@H](CC(C)C)C(=O)N[C@@H](CCCNC(=N)N)C(=O)N[C@@H](CCCCN)C(=O)N[C@@H](CCC(N)=O)C(=O)N[C@H](C(=O)N[C@@H](C)C(=O)N[C@@H](C)C(=O)N[C@@H](CCCCN)C(=O)N[C@@H](CCCCN)C(=O)N[C@@H](Cc1ccc(O)cc1)C(=O)N[C@@H](CC(C)C)C(=O)N[C@@H](CCC(N)=O)C(=O)N[C@@H](CO)C(=O)N[C@H](C(=O)N[C@@H](CCCCN)C(=O)N[C@@H](CC(N)=O)C(=O)N[C@@H](CO)C(=O)N[C@@H](CCCNC(=N)N)C(=O)N[C@H](C(=O)N[C@@H](CO)C(=O)N1CCC[C@H]1C(=O)N1CCC[C@H]1C(=O)N1CCC[C@H]1C(=O)N[C@@H](CCCCNC(=O)[C@@H](N)Cc1c[nH]c2ccccc12)C(N)=O)[C@@H](C)O)[C@@H](C)CC)C(C)C)[C@@H](C)O)[C@@H](C)O)C(C)C
[10]
  EC50 for cAMP generation, DiscoveRx: 0.47 nM

Source: patent publication US20080096811A1, “[…] VPAC2 RECEPTOR PEPTIDE AGONISTS” (Eli Lilly and Company, published 2008)
